This note sets out measurements from ChEMBL document CHEMBL1143834, “Activity of Garenoxacin against Macrolide-Susceptible and -Resistant Mycoplasma pneumoniae” (2007).

Common to all, as to format: functional
For experiment [1], the system named is Mycoplasmoides pneumoniae. Description: Antimicrobial activity against macrolide-susceptible Mycoplasma pneumoniae M129.
Experiment [2] relates to Mycoplasmoides pneumoniae. Description: Antimicrobial activity against macrolide-resistant Mycoplasma pneumoniae with 23S rRNA A2064G mutant isolate 2.
Experiment [3] has as its system Mycoplasmoides pneumoniae. Briefly: Antimicrobial activity against macrolide-susceptible Mycoplasma pneumoniae FH.
Experiment [4] has as its system Mycoplasmoides pneumoniae. Description: Antimicrobial activity against macrolide-susceptible Mycoplasma pneumoniae Mac.
Experiment [5] concerns Mycoplasmoides pneumoniae. Description: Antimicrobial activity against macrolide-resistant Mycoplasma pneumoniae with 23S rRNA A2063G mutant isolate 1.
The subject of experiment [6] is Mycoplasmoides pneumoniae. Description: Antimicrobial activity against macrolide-resistant Mycoplasma pneumoniae with 23S rRNA A2064G mutant isolate 4.
The test system of experiment [7] is Mycoplasmoides pneumoniae. Description: Antimicrobial activity against macrolide-resistant Mycoplasma pneumoniae with 23S rRNA A2063G mutant isolate 6.

Values after ≈ are worked out from the molar mass of the structure shown.

For the molecule `CC[C@H]1OC(=O)[C@H](C)[C@@H](O[C@H]2C[C@@](C)(OC)[C@@H](O)[C@H](C)O2)[C@H](C)[C@@H](O[C@@H]2O[C@H](C)C[C@H](N(C)C)[C@H]2O)[C@](C)(OC)C[C@@H](C)C(=O)[C@H](C)[C@@H](O)[C@]1(C)O` [CLARITHROMYCIN], the MIC was determined as 0.002 µg/mL (≈ 0.00267 µM) in experiment [1]; 8 µg/mL (≈ 10.7 µM) in experiment [2]; 0.004 µg/mL (≈ 0.00535 µM) in experiment [3]; 0.002 µg/mL (≈ 0.00267 µM) in experiment [4]; 32 µg/mL (≈ 42.8 µM) in experiment [5]; 8 µg/mL (≈ 10.7 µM) in experiment [6]. In addition, the minimal inhibitory concentration (MIC) in experiment [7] was 32 µg/mL (≈ 42.8 µM).

In the case of `C[C@H]1NCc2cc(-c3ccc4c(=O)c(C(=O)O)cn(C5CC5)c4c3OC(F)F)ccc21` [GARENOXACIN], the minimal inhibitory concentration (MIC) in experiment [1], in experiment [2], in experiment [3], in experiment [4], in experiment [5] and in experiment [6] was 0.016 µg/mL (≈ 0.0375 µM) in each case. In experiment [7], this molecule displayed an MIC of 0.031 µg/mL (≈ 0.0727 µM).

Take `COc1c(N2CCNC(C)C2)c(F)cc2c(=O)c(C(=O)O)cn(C3CC3)c12` (stereo not given) [GATIFLOXACIN]: the MIC was 0.063 µg/mL (≈ 0.168 µM) in experiment [1]; 0.063 µg/mL (≈ 0.168 µM) in experiment [2]; 0.063 µg/mL (≈ 0.168 µM) in experiment [3]; 0.063 µg/mL (≈ 0.168 µM) in experiment [4]; 0.031 µg/mL (≈ 0.0826 µM) in experiment [5]; 0.031 µg/mL (≈ 0.0826 µM) in experiment [6]. This molecule had an MIC in experiment [7] of 0.063 µg/mL (≈ 0.168 µM).

Regarding `C[C@H]1COc2c(N3CCN(C)CC3)c(F)cc3c(=O)c(C(=O)O)cn1c23.C[C@H]1COc2c(N3CCN(C)CC3)c(F)cc3c(=O)c(C(=O)O)cn1c23.O` [LEVOFLOXACIN], the MIC in experiment [1] came out at 0.25 µg/mL; in experiment [2], 0.25 µg/mL; in experiment [3], 0.5 µg/mL; in experiment [4] it was 0.25 µg/mL; in experiment [5] it was 0.25 µg/mL; in experiment [6], 0.25 µg/mL. In experiment [7], this molecule yielded an MIC of 0.5 µg/mL.

Turning to `CN(C)c1ccc(O)c2c1C[C@H]1C[C@H]3[C@H](N(C)C)C(O)=C(C(N)=O)C(=O)[C@@]3(O)C(O)=C1C2=O` [MINOCYCLINE], the MIC in experiment [1] came out at 0.25 µg/mL (≈ 0.546 µM); in experiment [2], 0.25 µg/mL (≈ 0.546 µM); in experiment [3], 0.5 µg/mL (≈ 1.09 µM); in experiment [4], 0.25 µg/mL (≈ 0.546 µM); in experiment [5], 0.25 µg/mL (≈ 0.546 µM); in experiment [6], 0.25 µg/mL (≈ 0.546 µM). In experiment [7], this molecule had an MIC of 0.25 µg/mL (≈ 0.546 µM).
